Drawing on patent publication US20180179198A1, “TRICYCLIC MODULATORS OF TNF SIGNALING” (AbbVie Inc., priority 2015, published 2018), this text covers IC50 for 44 molecules.

What is called IC50 is the midpoint of a concentration-inhibition curve.

Where two headings read alike, the source gives them in different places.

The test concerns the target TNFα trimer (Homo sapiens, UniProt P01375). Briefly: TNFα FP Competitive Binding Assay. Put shortly: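 Compounds, 12-point 1:3 dilutions topping at 100 μM (2.0% DMSO) or 338 μM (3.4% DMSO) final, compete with 1 nM fluorescent probe for 20 nM TNFα trimer in HEPES/NaCl/EDTA/Triton buffer. After 18-24 h incubation at 37 °C plus 1 h rt equilibration, background-subtracted polarization is read and fitted with variable slope.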

The mark [1] stands for this setting: fluorescence polarization competition, 20 nM TNFα trimer, 1 nM OregonGreen488 probe, read-out: TNF IC50 (TNFα FP binding assay IC50).
Where [2] appears, read: TNFα FP competitive binding assay, class symbols A/B/C, read-out: TNF IC50.

TNFα trimer, sequence (P01375 77-233 limits assumed): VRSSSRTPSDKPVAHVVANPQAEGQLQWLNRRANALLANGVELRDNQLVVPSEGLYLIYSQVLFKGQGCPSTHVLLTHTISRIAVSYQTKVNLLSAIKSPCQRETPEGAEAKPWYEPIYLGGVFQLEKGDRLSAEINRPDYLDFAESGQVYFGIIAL

As for `OC1(c2cc(F)cc(Cl)c2)CCCc2nc3ccc(-c4cnc(N5CCOCC5)nc4)cn3c21` (centres unmarked) [I.7], the IC50 under setting [1] lay within 1 to 10 µM.
As for `COCCn1ccc(-c2ccc3nc4n(c3n2)[C@@H](c2ccccc2)CC4)cc1=O` [AW.2], the half-maximal inhibitory concentration (IC50) under setting [2] lay in the range of 1 to 10 µM.
On to `CS(=O)(=O)CCn1ccc(-c2ccc3nc4n(c3n2)[C@@H](c2ccccc2)CC4)cc1=O` [AK.2], for which the IC50 under setting [2] is 10 to 100 µM.
Same read-out and setting: for `OCC1(F)CCN(c2ncc(-c3ccc4nc5n(c4n3)C(c3ccccc3)COC5)cn2)CC1` (centres unmarked) [AZ.5] the value was less than 1 µM; for `CCOc1ncc(-c2ccc3nc4n(c3n2)C2(CCOc3ccccc32)COC4)cn1` (centres unmarked) [BA.2], less than 1 µM.
For `c1ccc2c(c1)OCCC21COCc2nc3ccc(-c4cnc(N5CCNCC5)nc4)nc3n21` (centres unmarked) [Example 59, 2′-(2-(Piperazin-1-yl)pyrimidin-5-yl)-6′H,8′H-spiro[chromane-4,9′-pyrido[3′,2′:4,5]imidazo[2,1-c][1,4]oxazine]], under setting [1], the IC50 was 1 to 10 µM.
Regarding `O=C1NC[C@@H]2CN(c3ncc(-c4ccc5nc6c(n5n4)[C@@H](c4ccccc4)COC6)cn3)CCN12` [AF.2], the IC50 under setting [2] is less than 1 µM.
On the same count and under the same terms, for `c1ccc([C@H]2CCc3nc4ccc(-c5ccnc(OCC6COC6)c5)nc4n32)cc1` [AQ.5] the value was 1 to 10 µM.
In the case of `O=C1NCN2CCN(c3ncc(-c4ccc5nc6n(c5n4)[C@@H](c4ccccc4)COC6)cn3)CC12` (some centres unmarked) [AB.5], the IC50 under setting [2] is less than 1 µM.
For `CC(C)(O)c1ncc(-c2ccc3nc4n(c3n2)C2(CCc3ccccc32)COC4)cn1` (centres unmarked) [Example 68, 2-(5-(2,3-Dihydro-6′H,8′H-spiro[indene-1,9′-pyrido[3′,2′:4,5]imidazo[2,1-c][1,4]oxazin]-2′-yl)pyrimidin-2-yl)propan-2-ol], under setting [1], the IC50 was less than 1 µM.
In the case of `O=C1NCC2CN(c3ncc(-c4ccc5nc6n(c5c4)C(c4ccccc4C(F)(F)F)COC6)cn3)CCN12` (centres unmarked) [Example 35, 7-(5-(4-(2-(Trifluoromethyl)phenyl)-3,4-dihydro-H-benzo[4,5]imidazo[2,1-c][1,4]oxazin-7-yl)pyrimidin-2-yl)hexahydroimidazo[1,5-a]pyrazin-3(2H)-one], the IC50 under setting [1] was less than 1 µM.
Still for that read-out and setting: for `CCS(=O)(=O)c1ccc(-c2ccc3nc4n(c3c2)C(c2ccccc2)CC4)cc1` (centres unmarked) [A.2] the value was less than 1 µM.
Consider `COC(=O)C1CCC(Oc2cc(-c3ccc4nc5n(c4n3)[C@@H](c3ccccc3)CC5)ccn2)C1` (some centres unmarked) [AS.5], for which the IC50 under setting [2] was 1 to 10 µM.
The same measure, in the same setting: for `OC1(c2ncc(-c3ccc4nc5n(c4c3)[C@@H](c3ccccc3)CC5)cn2)COC1` [AA.3] the value was less than 1 µM.
Regarding `C[C@@]1(c2ccccc2)CCc2nc3ccc(-c4cnc(N5CCC(O)CC5)nc4)nc3n21` [(S)-1-(5-(8-methyl-8-phenyl-7,8-dihydro-6H-pyrrolo[2′,1′:2,3]imidazo[4,5-b]pyridin-2-yl)pyrimidin-2-yl)piperidin-4-ol], the 50% inhibitory concentration (IC50) under setting [1] fell in the range of 10 to 100 µM.
Still for that read-out and setting: for `CC1(C)C=C(c2ccc3nc4n(c3n2)C2(COC4)COc3ccccc32)CN1` (centres unmarked) [Example 65, 2′-(5,5-Dimethyl-2,5-dihydro-1H-pyrrol-3-yl)-6′,8′-dihydro-2H-spiro[benzofuran-3,9′-pyrido[3′,2′:4,5]imidazo[2,1-c][1,4]oxazine]] the value was 1 to 10 µM.
As for `O=S1(=O)CCN(c2ncc(-c3ccc4nc5n(c4c3)[C@@H](c3ccccc3)COC5)cn2)CC1` [W.3], the IC50 under setting [2] is less than 1 µM.
For the molecule `Cn1ccc(-c2ccc3nc4n(c3c2)C(c2ccccc2)CC4)c1` (centres unmarked) [A.47], the IC50 under setting [1] lay in the range of 10 to 100 µM.
Regarding `CC(C)(O)c1ncc(-c2ccc3nc4n(c3n2)[C@@]2(COC4)COc3ccccc32)cn1` [Y.13], the IC50 under setting [2] is less than 1 µM.
As for `OC[C@H]1CC[C@H](COc2cc(-c3ccc4nc5n(c4n3)[C@@H](c3ccccc3)CC5)ccn2)CC1` [BK.3], the IC50 (Table BK, read-out: TNF IC50) was in the range of 1 to 10 µM.
In the case of `c1ccc([C@H]2CCc3nc4ccc(-c5ccnc(O[C@H]6CCNC6)c5)nc4n32)cc1` [Example 49], the IC50 under setting [1] lay in the range of 1 to 10 µM.
The same measure, in the same setting: for `CC(C)(O)c1ncc(-c2ccc3nc4n(c3n2)C(C)(c2ccccc2)CC4)cn1` (centres unmarked) [Example 39, 2-(5-(8-Methyl-8-phenyl-7,8-dihydro-6H-pyrrolo[2′,1′:2,3]imidazo[4,5-b]pyridin-2-yl)pyrimidin-2-yl)propan-2-ol] the value was less than 1 µM; for `O=C1CN(c2ncc(-c3ccc4nc5n(c4c3)[C@@H](c3ccccc3)COC5)cn2)CCCN1` [G.9], 1 to 10 µM.
Same read-out and setting: with `CN(C)c1ccc(-c2ccc3nc4n(c3c2)C(c2ccccc2)CC4)cn1` (centres unmarked) [A.12] the figure was 1 to 10 µM; with `Nc1ccc(-c2ccc3nc4n(c3c2)C(c2ccccc2)CC4)cn1` (centres unmarked) [A.27], 10 to 100 µM.
On the same count and under the same terms, with `CS(=O)(=O)N1CCN(c2ncc(-c3ccc4nc5n(c4c3)[C@@H](c3ccccc3)COC5)cn2)CC1` [G.24] the figure was less than 1 µM; with `CS(=O)(=O)c1cccc(-c2ccc3nc4n(c3c2)C(c2ccccc2)CC4)c1` (centres unmarked) [A.30], 10 to 100 µM.
With `O=c1cc(-c2ccc3nc4n(c3n2)[C@@H](c2ccccc2)CC4)ccn1CC1CCC(F)(F)CC1` [AW.1], under setting [2], the IC50 is 1 to 10 µM.
In the case of `CC(C)(O)c1ncc(-c2ccc3nc4n(c3c2)C(c2ccccc2O)CCC4)cn1` (centres unmarked) [E.2], the IC50 under setting [1] lay in the range of 10 to 100 µM.
For `NS(=O)(=O)c1ccc(-c2ccc3nc4n(c3c2)C(c2ccccc2)CC4)cc1` (centres unmarked) [A.6], the IC50 under setting [1] was less than 1 µM.
Consider `CN(C)CCNC(=O)c1cccc(-c2ccc3nc4n(c3c2)C(c2ccccc2)CC4)c1` (centres unmarked) [A.45], for which the IC50 under setting [1] lay in the range of 10 to 100 µM.
Still for that read-out and setting: for `COc1cccc(C2(O)CCCCc3nc4ccc(-c5cnc(N6CCOCC6)nc5)cn4c32)c1` (centres unmarked) [J.10] the value was 10 to 100 µM.
With `COc1ccccc1[C@H]1COCc2nc3ccc(-c4cnc(C(C)(C)O)nc4)cc3n21` [Z.1], under setting [2], the IC50 was less than 1 µM.
As for `N#CCc1ccc(-c2ccc3nc4n(c3c2)C(c2ccccc2)CC4)cc1` (centres unmarked) [A.7], the concentration for half-maximal inhibition (IC50) under setting [1] was less than 1 µM.
`c1ccc(C2C3CC(C3)c3nc4ccc(-c5ccnc(OC6CCOCC6)c5)nc4n32)cc1` (centres unmarked) [BD.1]: the IC50 under setting [2] fell in the range of 1 to 10 µM.
Still for that read-out and setting: for `COc1cccc([C@@H]2CCc3nc4ccc(-c5cnc(N6CCN7C(=O)NC[C@@H]7C6)nc5)nc4n32)c1` [AN.1] the value was 10 to 100 µM.
In the case of `Cc1c(-c2ccc3nc4n(c3c2)C(c2ccccc2)CC4)cnn1C` (centres unmarked) [A.28], the IC50 under setting [1] was in the range of 10 to 100 µM.
The same measure, in the same setting: for `OC1CCN(c2ncc(-c3ccc4nc5n(c4n3)C(c3ccccc3)CCC5)cn2)CC1` (centres unmarked) [O.4] the value was less than 1 µM.
In the case of `CC(O)C(=O)N1CCN(c2ncc(-c3ccc4nc5n(c4n3)C(c3ccccc3)COC5)cn2)CC1` (centres unmarked) [AZ.6], under setting [2], the IC50 lay within 1 to 10 µM.
Still for that read-out and setting: for `O[C@H]1CC[C@@H](Oc2cc(-c3ccc4nc5n(c4n3)[C@@H](c3ccccc3)CC5)ccn2)CC1` [AR.1] the value was 1 to 10 µM.
`CC(=O)N1CCN(c2ncc(-c3ccc4nc5n(c4n3)[C@@H](c3ccccc3)CC5)cn2)C[C@H]1C` [Example 41, 1-((R)-2-Methyl-4-(5-((R)-8-phenyl-7,8-dihydro-6H-pyrrolo[2′,1′:2,3]imidazo[4,5-b]pyridin-2-yl)pyrimidin-2-yl)piperazin-1-yl)ethanone]: under setting [1], the IC50 was less than 1 µM.
On the same count and under the same terms, with `c1ccc2c(c1)OCCC21COCc2nc3ccc(-c4cnc(NC5CCOC5)nc4)nc3n21` (centres unmarked) [Example 60, 5-(6′H,8′H-Spiro[chromane-4,9′-pyrido[3′,2′:4,5]imidazo[2,1-c][1,4]oxazin]-2′-yl)-N-(tetrahydrofuran-3-yl)pyrimidin-2-amine] the figure was 1 to 10 µM; with `CN1CCN(c2ccc(-c3ccc4nc5n(c4c3)C(c3ccccc3)CC5)cn2)CC1` (centres unmarked) [A.20], 1 to 10 µM.
With `CC(C)(O)c1ncc(-c2ccc3nc4n(c3n2)[C@@]2(CCOc3ccccc32)COC4)cn1` [Y.15], under setting [2], the IC50 lay in the range of 1 to 10 µM.
